From patent publication US20040229791A1, “Compositions and methods of modulating TGF-beta activity by fatty acids” (priority 2002, published 2004) come the findings set out here.

One may read the IC50 as the concentration at which inhibition is half-maximal.

One experiment deals with T1, TGF-β1-α2M* complex (Homo sapiens, UniProt P01023).
T1 construct: was purified from pooled citrate-treate human plasma; from tissue; host or cells: pooled citrate-treated human plasma
T1 sequence (P01023 24-1474): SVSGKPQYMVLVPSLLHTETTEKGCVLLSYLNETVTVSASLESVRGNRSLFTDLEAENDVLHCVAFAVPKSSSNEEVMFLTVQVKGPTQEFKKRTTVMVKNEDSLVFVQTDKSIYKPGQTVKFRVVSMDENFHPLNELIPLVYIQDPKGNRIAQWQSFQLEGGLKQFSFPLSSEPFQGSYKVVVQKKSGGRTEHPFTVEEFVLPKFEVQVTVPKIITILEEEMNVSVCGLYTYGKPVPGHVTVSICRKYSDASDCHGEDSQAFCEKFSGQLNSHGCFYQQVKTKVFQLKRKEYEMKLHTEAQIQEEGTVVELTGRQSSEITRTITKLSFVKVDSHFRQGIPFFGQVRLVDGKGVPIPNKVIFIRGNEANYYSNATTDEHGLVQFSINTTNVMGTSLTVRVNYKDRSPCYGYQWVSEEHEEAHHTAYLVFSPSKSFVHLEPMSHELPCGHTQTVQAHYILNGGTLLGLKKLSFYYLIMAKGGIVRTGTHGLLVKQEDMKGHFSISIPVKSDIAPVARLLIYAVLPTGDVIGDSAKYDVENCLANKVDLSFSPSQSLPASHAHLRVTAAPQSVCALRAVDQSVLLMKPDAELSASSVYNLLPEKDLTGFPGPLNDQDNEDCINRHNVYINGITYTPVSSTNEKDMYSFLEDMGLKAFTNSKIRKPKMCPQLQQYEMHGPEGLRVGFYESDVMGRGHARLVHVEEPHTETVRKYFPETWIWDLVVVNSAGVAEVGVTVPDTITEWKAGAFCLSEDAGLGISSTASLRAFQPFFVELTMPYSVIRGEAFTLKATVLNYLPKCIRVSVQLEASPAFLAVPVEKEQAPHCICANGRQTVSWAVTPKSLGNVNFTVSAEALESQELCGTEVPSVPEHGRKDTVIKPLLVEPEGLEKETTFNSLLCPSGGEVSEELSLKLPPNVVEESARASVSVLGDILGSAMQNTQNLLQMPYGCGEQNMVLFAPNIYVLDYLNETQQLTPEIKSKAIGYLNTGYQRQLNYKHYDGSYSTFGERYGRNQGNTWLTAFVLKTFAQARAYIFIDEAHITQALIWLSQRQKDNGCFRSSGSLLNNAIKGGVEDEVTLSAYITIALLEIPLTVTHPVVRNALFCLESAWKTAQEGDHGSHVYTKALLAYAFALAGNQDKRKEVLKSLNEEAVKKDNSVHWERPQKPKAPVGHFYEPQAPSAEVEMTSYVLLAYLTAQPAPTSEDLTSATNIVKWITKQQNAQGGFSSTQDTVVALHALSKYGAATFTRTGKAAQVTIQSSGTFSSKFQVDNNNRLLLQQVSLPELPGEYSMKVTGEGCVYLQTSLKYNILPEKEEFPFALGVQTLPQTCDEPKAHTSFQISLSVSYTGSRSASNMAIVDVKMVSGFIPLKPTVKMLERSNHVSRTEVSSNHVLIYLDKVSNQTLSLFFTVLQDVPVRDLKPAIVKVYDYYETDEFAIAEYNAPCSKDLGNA
As to the kind of experiment: Inhibition of 125I-TGF-β1 and α2M* complex formation (5% non-denaturing PAGE, autoradiography). In kind it is binding. The settings on record: ~1 nM 125I-TGF-β1, 10 μg α2M* in 0.05 ml, 30 min room temperature, non-denaturing PAGE; read-out: IC50 for inhibiting complex formation between TGF-β1 and α2M*. Here is the method:
Saturated and unsaturated fatty acids are present in plasma and tissues (25,26). The effects of various concentrations of saturated fatty acids on the formation of complexes between ^125I-TGF ? β1 and ? 2M* were examined. ^125I-TGF- ? 1 (1 nM) was incubated μg/ml) in the presence of various concentrations of n-caprylic acid ([…]), lauric acid (12 carbon atoms), myristic acid (14 carbon atoms), palmitic acid (16 carbon atoms) and stearic acid (18 carbon atoms). After 30 min at room temperature, the reaction mixture was analyzed by 5% non-denaturing PAGE and autoradiography, a standard method form determining complex formation between TGF-β and α2M* (12). […] At 100 μM, it inhibited 20% of the complex formation between TGF ? β1 and α2M*. Esterification consistently abolished the inhibitory activities of the fatty acids.
Complex formation of ^125I-TGF-β and ? 2M*—The reaction mixture contained 10 μg of . α2M*, ˜1 nM of ^125I-TGF- ? 1, ^125I-TGF ? β2 or ^125I-TGF ? acids (dissolved in 100% ethanol) in 0.05 ml of 50 mM HEPES-NaOH buffer, pH 7.4. The final concentration of ethanol in the reaction mixture was 0.5%. These fatty acids and fatty acid derivatives were soluble under the experimental conditions. After 30 min at room temperature, the complex formation of ^125I-TGF- ? and. α2M* was determined by 5% non-denaturing polyacrylamide gel electrophoresis (PAGE) or by 7.5% SDS-PAGE following cross-linking by 0.6 mM DSS. After electrophoresis, the gel was stained with Coomassie blue and analyzed by autoradiography. The ^125I-TGF- ? - ? 2M* complex which co-migrated with free ? 2M* was quantified using a PhosphoImager (Fuji).

A further experiment addresses T2, TGF-β2-α2M* complex (Homo sapiens, UniProt P01023).
T2 construct: was purified from pooled citrate-treate human plasma; from tissue; host or cells: pooled citrate-treated human plasma
T2 sequence (P01023 24-1474): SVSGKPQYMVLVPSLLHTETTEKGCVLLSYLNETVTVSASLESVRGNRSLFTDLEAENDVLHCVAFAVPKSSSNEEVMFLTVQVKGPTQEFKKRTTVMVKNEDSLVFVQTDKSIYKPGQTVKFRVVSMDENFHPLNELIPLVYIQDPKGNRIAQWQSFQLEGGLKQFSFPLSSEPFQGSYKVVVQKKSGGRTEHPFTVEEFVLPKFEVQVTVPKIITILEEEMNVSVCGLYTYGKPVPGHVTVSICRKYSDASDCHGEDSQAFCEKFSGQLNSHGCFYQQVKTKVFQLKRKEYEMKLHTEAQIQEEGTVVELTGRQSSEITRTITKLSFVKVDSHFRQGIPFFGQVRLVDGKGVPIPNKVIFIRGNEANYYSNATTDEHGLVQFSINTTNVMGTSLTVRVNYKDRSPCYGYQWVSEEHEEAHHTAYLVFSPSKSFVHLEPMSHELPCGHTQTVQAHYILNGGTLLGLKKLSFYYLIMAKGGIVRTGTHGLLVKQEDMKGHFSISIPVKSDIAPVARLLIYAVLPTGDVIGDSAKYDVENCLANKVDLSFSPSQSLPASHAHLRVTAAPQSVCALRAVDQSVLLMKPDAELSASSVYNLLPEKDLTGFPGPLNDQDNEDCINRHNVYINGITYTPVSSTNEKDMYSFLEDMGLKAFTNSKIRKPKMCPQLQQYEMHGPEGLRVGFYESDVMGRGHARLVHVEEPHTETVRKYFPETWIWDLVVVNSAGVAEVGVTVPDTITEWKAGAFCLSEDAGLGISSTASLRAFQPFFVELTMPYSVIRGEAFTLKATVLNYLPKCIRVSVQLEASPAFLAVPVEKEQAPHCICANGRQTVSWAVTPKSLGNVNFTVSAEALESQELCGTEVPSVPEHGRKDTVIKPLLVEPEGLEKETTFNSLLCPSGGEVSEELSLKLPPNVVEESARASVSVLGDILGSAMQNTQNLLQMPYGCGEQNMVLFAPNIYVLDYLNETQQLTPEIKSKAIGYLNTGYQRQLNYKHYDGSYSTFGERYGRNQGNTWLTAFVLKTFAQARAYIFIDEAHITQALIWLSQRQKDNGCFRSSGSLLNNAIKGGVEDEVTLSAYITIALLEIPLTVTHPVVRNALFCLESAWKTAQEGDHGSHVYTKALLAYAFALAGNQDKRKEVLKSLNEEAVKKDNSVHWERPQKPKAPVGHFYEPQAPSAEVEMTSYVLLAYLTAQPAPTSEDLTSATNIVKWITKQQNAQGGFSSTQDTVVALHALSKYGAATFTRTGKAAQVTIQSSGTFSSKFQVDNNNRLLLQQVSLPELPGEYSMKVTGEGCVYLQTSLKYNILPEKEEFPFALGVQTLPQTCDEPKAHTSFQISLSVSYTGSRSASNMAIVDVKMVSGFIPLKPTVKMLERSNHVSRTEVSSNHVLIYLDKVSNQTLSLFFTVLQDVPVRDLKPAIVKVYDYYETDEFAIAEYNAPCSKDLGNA
Briefly: Inhibition of 125I-TGF-β2 and α2M* complex formation (5% non-denaturing PAGE). In kind it is binding. The conditions noted are these: 30% inhibition. Here is the method: TGF- ? isoforms bind to α2M* with different affinities: TGF ? β2>TGF ? β1 ( active sites of TGF ? β1 and TGF- ? 2 responsible for high-affinity binding to ? 2M* are disti from the low-affinity ? 2M* binding site in TGF- ? 3 (19). To determine if fatty acids differentially affect the binding of TGF- ? isoforms to ? 2M*, the effects of various concentrations of arachidonic acid and myristic acid on complex formation of ^125I-labeled TGF ? β isoforms and ? 2M were determined*. […] It inhibited 30% of the complex form . α2M* and TGF ? β2 and TGF ? β3 at 100 and >250 μM, respectively. Arachidon polyunsaturated fatty acid, was a stronger inhibitor of complex formation of ? 2M* and TGF-.β2/TGF ? β3. It inhibited 50% of the complex formation of ? 2M* and ^125I-TGF- ? 2 at 50 μM (FIG. 3A). The observation that myristic acid and arachidonic acid inhibited complex formation of ^125I-TGF- ? […] 2M* complexes in the reaction mixtures were then analyzed by 7.5% SDS-PAGE and autoradiography.
Complex formation of ^125I-TGF-β and ? […] After 30 min at room temperature, the complex formation of ^125I-TGF- ? and. α2M* was determined by 5% non-denaturing polyacrylamide gel electrophoresis (PAGE) or by 7.5% SDS-PAGE following cross-linking by 0.6 mM DSS. After electrophoresis, the gel was stained with Coomassie blue and analyzed by autoradiography. […] 2M* was quantified using a PhosphoImager (Fuji).

Regarding `CCCCCCCCCCCCCC(=O)O` [myristic acid], the IC50 at TGF-β1-α2M* complex was 9.1 µM. The “concentration that inhibited 30% of the complex formation of α2M* and TGF-β2” value on TGF-β2-α2M* complex was 100 µM.
